Broadly, the pIC50 is the negative decadic logarithm of the IC50, by convention in mol/L.

Test [1] addresses T1, unphosphorylated T315I Abl kinase domain (Mus musculus, UniProt P00520, T315I).
T1 construct: purified and unphosphorylated T315I Abl kinase domain; made in house; host or cells: E. coli BL21(DE3) (Codon+RIL or pSA0145 strain)
T1 sequence (P00520 242-493 T315I limits assumed): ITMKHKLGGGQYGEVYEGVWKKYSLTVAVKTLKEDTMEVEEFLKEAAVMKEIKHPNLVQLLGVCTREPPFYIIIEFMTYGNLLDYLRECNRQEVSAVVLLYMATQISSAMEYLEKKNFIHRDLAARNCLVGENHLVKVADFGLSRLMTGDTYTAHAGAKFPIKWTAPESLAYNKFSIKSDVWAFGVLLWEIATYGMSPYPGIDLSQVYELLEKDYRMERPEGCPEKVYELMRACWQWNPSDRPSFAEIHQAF
Nature of the test: c-Abl T315I 0P bioassay (pyruvate kinase/lactate dehydrogenase coupled enzyme assay). The class given is biochemical. The note with it: zero phosphorylation state (0P), 10 μM ATP, read-out: AbI T315I 0P IC50. An excerpt:
Although the first of these examples uses the kinase domain of a mutant form of Abl T315I (“Abl T315I KD”), the kinase assays may use various forms of mutant and wild type enzymes, including, for example, the entire protein, the kinase domain, or a portion thereof (e.g. Abl Y393F). The kinases used in the assays may also be of varying phosphorylation states. In the c-Abl example, a mutant kinase at a zero phosphorylation state was used. c-Abl Pyruvate Kinase/Lactate Dehydrogenase Coupled Enzyme Assay
In the c-Abl Pyruvate Kinase (PK)/Lactate Dehydrogenase (LDH) Coupled Assay the protein kinase dependant phosphorylation of a substrate peptide was coupled to the oxidation of NADH. The oxidation of NADH to NAD+ was detected by monitoring a decrease in absorbance at 340 nm.
Materials: Abl substrate peptide=EAIYAAPFAKKK (SEQ ID NO: 1)—OH (Biopeptide, San Diego, Calif.); pNADH (Sigma Cat#N-8129, FW=709.4); 2M MgC12; 1M HEPES buffer, pH 7.5; Phosphoenolpyruvate (PEP) (Sigma Cat#P-7002, FW=234); Lactate dehydrogenase (LDH) (Worthington Biochemical Cat#2756); Pyruvate Kinase (PK) (Sigma Cat#P-9136); ATP (Sigma Cat#A-3377, FW=551); Greiner 384-well UV star plate; and purified and unphosphorylated T315I Abl kinase domain.
Stock Solutions: 10 mM NADH (7.09 mg/ml in miliQH2O) made fresh daily; 10 mM Abl substrate peptide (13.4 mg/ml in miliQH2O) stored at −20° C.; 100 mM HEPES buffer, pH 7.5 (5 ml 1M stock+45 ml miliQH2O); 100 mM MgCl2 (5 ml 2M MgCl2+95 ml dH2O); 100 MM PEP (23.4 mg/ml in dH2O) stored at −20° C.; 10 mM ATP (5.51 mg/ml in dH2O) stored at −20° C. (diluted 50 μl into total of 10 ml miliQH2O daily=50 μM ATP working stock); 1000 U/ml PK (U/mg varies with lot) flash-frozen under liquid N2 and stored at −80° C.; and 1000 U/ml LDH (U/mg varies with lot) flash-frozen under liquid N2 and stored at −80° C.
Standard Assay Setup for 384-well format (50 μl reaction): 300 μM NADH; 10 mM MgCl2; 2 mM PEP; 45U/ml PK; 60 U/ml LDH; 200 μM Abl substrate peptide; 2.5 μl test compound (in DMSO); 2 μg/ml Abl kinase domain; 10 μM ATP; 100 mM HEPES buffer. Positive controls contained DMSO with no test compound. Negative controls contained 5 μl of 0.5M EDTA (50 mM in the assay). The dephosphorylated form of the c-Abl T315I mutant was used in the biochemical screening assays. The kinase reaction was initiated at time t=0 by the addition of ATP.
Activity was measured by following the time-dependent loss of NADH by absorbance spectroscopy at 340 nm. The linear portion of the resulting progress curve was then analyzed by linear regression to get the activity in absorbance units/time, reported as the slope of that best fit line (moles/unit time can be calculated from using molar extinction coefficient for NADH at 340 nm, 6250M^−1 cm^−1).
Data was evaluated using the equation: Z′=1−[3*(σ++σ−)/|μ+−μ−|](Zhang, et al., 1999 J Biomol Screening 4(2) 67-73), where μ denotes the mean and σ the standard deviation. The subscript designates positive or negative controls. The Z′ score for a robust screening assay should be ≧0.50. The typical threshold=μ+−3*σ+. Any value that falls below the threshold was designated a “hit”.
Dose response was analyzed using the equation: y=min+{(max−min)/(1+10^[compound]−logIC50)}, where y is the observed initial slope, max=the slope in the absence of inhibitor, min=the slope at infinite inhibitor, and the IC50 is the [compound] that corresponds to ½ the total observed amplitude (Amplitude=max−min).
To measure modulation, activation, or inhibition of Abl KD, a test compound was added to the assay at a range of concentrations. Inhibitors may inhibit Abl KD activity at an IC50 in the micromolar range, the nanomolar range, or, for example, in the subnanomolar range.
An open-reading frame for c-Abl was amplified from a Mus musculus (mouse) cDNA library prepared from freshly harvested mouse liver using a commercially available kit (invitrogen) by PCR using the following primers: […]
The c-Abl T315I KD (kinase domain) was purified as follows. […]

The target in test [2] is Ba/F3 cells, ABL1 T315I (Homo sapiens, UniProt P00519, T315I, cells depend on it). As to the kind of experiment: 96-well XTT cell survival assay, Ba/F3 ABL1 T315I. The conditions noted are these: 72 hours, read-out: ABL1 T315I XTT [Ba/F3] IC50. The class given is cell-based. The procedure:
(§1) MV4-11 and THP cells were maintained in Iscove's Modified Dulbecco's Medium supplemented with 10% fetal bovine serum (FBS) and penicillin/streptomycin, Ba/F3 cells were maintained in RPMI 1640 supplemented with 10% FBS, penicillin/streptomycin and 5 ng/ml recombinant mouse IL-3.
(§2) Compounds were tested in the following assays in duplicate.
(§3) 96-well XTT assay: Cells (e.g. BaF3 315I, M351I, or E255K cells) were grown in growth media containing various concentrations of compounds (duplicates) on a 96-well plate for 72 hours at 37° C. The starting cell number was 5000-8000 cells per well and volume was 120 μl. At the end of the 72-hour incubation, 40 μl of XTT labeling mixture (50:1 solution of sodium 3′-[1-(phenylamino-carbonyl)-3,4-tetrazolium]-bis(4-methoxy-6-nitro)benzene sulfonic acid hydrate and Electron-coupling reagent: PMS (N-methyl dibenzopyrazine methyl sulfate) were added to each well of the plate. After an additional 2-6 hours of incubation at 37° C., the absorbance reading at 405 nm with background correction at 650 nm was measured with a spectrophotometer.
For orientation: Tetrazolium assays rely on reduction of a dye to a coloured formazan, in cell work by metabolically active cells.

The target in test [3] is Ba/F3 cells, ABL1 WT (Homo sapiens, UniProt P00519). Nature of the test: 96-well XTT cell survival assay, Ba/F3 ABL1 WT. Format: cell-based. The conditions noted are these: 72 hours, read-out: ABL1 WT XTT [Ba/F3] IC50. The procedure:
as §1, §2, §3

pIC50: −log10 of the molar value.

As for `COc1ccccc1-c1c[nH]c2ncc(-c3cc(C(C#N)C(=O)N(C)C)ncn3)cc12` (stereo not drawn), the pIC50 in test [1] was < 6.30. For the same compound, the GI50 in test [2] and in test [3] was > 1000 nM each time.
Consider `COc1ccccc1-c1c[nH]c2ncc(-c3cccc(C(O)C(=O)N(C)Cc4ccnn4C)c3)cc12` (stereo not drawn), for which, in test [1], the pIC50 was > 7.30. In addition, the GI50 in test [2] and in test [3] was < 1000 nM in each case.
Turning to `Cc1n[nH]cc1-c1c[nH]c2ncc(-c3cncc(C(O)C(=O)N(C)C)c3)cc12` (stereo not drawn), the pIC50 in test [1] is > 7.30. Besides, the GI50 in test [2] and in test [3] was > 1000 nM in each case.
For `COc1ccccc1-c1n[nH]c2ncc(-c3cccc(C(=O)C(=O)N(C)C)c3)cc12`, in test [1], the pIC50 is > 7.30. Further, the GI50 in test [2] and in test [3] was > 1000 nM each time.
Regarding `COc1ccccc1-c1c[nH]c2ncc(-c3ccnc(C(O)C(=O)N(C)C)n3)cc12` (stereo not drawn), the pIC50 in test [1] is 6.30 to 7.30. Moreover, the GI50 in test [2] and in test [3] was > 1000 nM in each case.
With `COc1ccccc1-c1n[nH]c2ncc(-c3cccc(C(O)C(=O)NC4CCN(C)CC4)c3)cc12` (stereo not drawn), the pIC50 in test [1] is > 7.30. Besides, the GI50 in test [2] and in test [3] was > 1000 nM in each case.
Consider `CN(C)C(=O)C(O)c1cncc(-c2cnc3[nH]cc(-c4cccnc4)c3c2)c1` (stereo not drawn), for which the pIC50 in test [1] was 6.30 to 7.30. Besides, the GI50 in test [2] and in test [3] was > 1000 nM each time.
As for `COc1ccccc1-c1c[nH]c2ncc(-c3cncc(C(O)CC(C)C)c3)cc12` (stereo not drawn), the pIC50 in test [1] was > 7.30. Besides, the GI50 in test [2] and in test [3] was < 1000 nM in each case.
For the compound `COc1ccccc1-c1c[nH]c2ncc(-c3cccc(C(O)c4ncccc4C(F)(F)F)c3)cc12` (stereo not drawn), the pIC50 in test [1] is > 7.30. Also, the GI50 in test [2] and in test [3] was > 1000 nM in each case.
For `COc1ccccc1-c1c[nH]c2ncc(-c3cccc(C(O)C(=O)N(C)CC4CCOCC4)c3)cc12` (stereo not drawn), the pIC50 in test [1] is > 7.30. Besides, the GI50 in test [2] and in test [3] was < 1000 nM throughout.
Regarding `CN(C)C(=O)C(O)c1cncc(-c2cnc3[nH]cc(-c4cccc(Cl)c4)c3c2)c1` (stereo not drawn) [drawing 431], the pIC50 in test [1] was > 7.30. Moreover, the GI50 in test [2] and in test [3] was < 1000 nM each time.
For the compound `COc1ccccc1-c1n[nH]c2ncc(-c3cccc(C(C)O)c3)cc12` (stereo not drawn), the pIC50 in test [1] was > 7.30. For the same compound, the GI50 in test [2] and in test [3] was < 1000 nM in each case.
With `CN(C)C(=O)C(O)c1cncc(-c2cnc3[nH]cc(-c4ccc(C#N)cc4)c3c2)c1` (stereo not drawn), the pIC50 in test [1] was 6.30 to 7.30. The GI50 in test [2] and in test [3] was > 1000 nM in each case.
In the case of `COc1ccccc1-c1n[nH]c2ncc(-c3cccc(C(C(=O)N4CCC(N(C)C)C4)N(C)C)c3)cc12` (stereo not drawn), the pIC50 in test [1] was 6.30 to 7.30. Besides, the GI50 in test [2] and in test [3] was > 1000 nM throughout.
Consider `CN(C)C(=O)C(O)c1cncc(-c2cnc3[nH]cc(-c4ccn[nH]4)c3c2)c1` (stereo not drawn), for which, in test [1], the pIC50 is > 7.30. In addition, the GI50 in test [2] and in test [3] was > 1000 nM in each case.
In the case of `CNC(C(=O)N(C)C(C)C)c1cccc(-c2cnc3[nH]nc(-c4ccccc4OC)c3c2)c1` (stereo not drawn), the negative logarithm of the IC50 (pIC50) in test [1] was > 7.30. The GI50 in test [2] and in test [3] was > 1000 nM throughout.
With `COc1ccccc1-c1n[nH]c2ncc(-c3cccc(C(O)C(=O)N(C)Cc4ccco4)c3)cc12` (stereo not drawn), the pIC50 in test [1] was > 7.30. For the same compound, the GI50 in test [2] and in test [3] was > 1000 nM throughout.
With `COc1ccccc1-c1n[nH]c2ncc(-c3cccc(C(O)CO)c3)cc12` (stereo not drawn), the pIC50 in test [1] is > 7.30. The results for the GI50 in test [2] and in test [3] were > 1000 nM and < 1000 nM, respectively.
On to `COc1ccccc1-c1n[nH]c2ncc(-c3cccc(C(N)C(=O)N(C)CCN(C)C)c3)cc12` (stereo not drawn), for which the pIC50 in test [1] was > 7.30. Further, the GI50 in test [2] and in test [3] was > 1000 nM each time.
Consider `COc1ccccc1-c1c[nH]c2ncc(-c3cccc(C(O)C(=O)N4CC(O)C4)c3)cc12` (stereo not drawn), for which, in test [1], the pIC50 was > 7.30. In addition, the GI50 was > 1000 nM in test [2] and < 1000 nM in test [3].
Consider `COc1ccccc1-c1c[nH]c2ncc(-c3cccc(C(O)c4nccn4C)c3)cc12` (stereo not drawn), for which, in test [1], the pIC50 was > 7.30. Besides, the GI50 in test [2] and in test [3] was < 1000 nM in each case.
With `CN(C)C(=O)C(O)c1cncc(-c2cnc3[nH]cc(-c4ccccc4OC(F)(F)F)c3c2)c1` (stereo not drawn), the pIC50 in test [1] was > 7.30. For the same compound, the GI50 was > 1000 nM in test [2] and < 1000 nM in test [3].
In the same order, the values of `COc1ccccc1-c1n[nH]c2ncc(-c3cccc(C(O)C(=O)N(C)CCNC(C)(C)C)c3)cc12` (stereo not drawn) are > 7.30, < 1000 nM and < 1000 nM.
In the same order, the values of `COc1ccccc1-c1n[nH]c2ncc(-c3cccc(C(O)c4ncccc4C)c3)cc12` (stereo not drawn) are > 7.30, < 1000 nM and < 1000 nM.
In the same order, the values of `COc1ccccc1-c1c[nH]c2ncc(-c3cccc(C(O)C(=O)N(C)CCNC4CC4)c3)cc12` (stereo not drawn) are > 7.30, < 1000 nM and < 1000 nM.
For the compound `COc1ccccc1-c1n[nH]c2ncc(-c3cccc(C(O)C(=O)N(C)C4CCN(C)C4)c3)cc12` (stereo not drawn), in test [1], the pIC50 is > 7.30. In addition, the GI50 in test [2] and in test [3] was < 1000 nM each time.
Take `COc1ccccc1-c1n[nH]c2ncc(-c3cccc(C(O)C(=O)N(C)CCN(C)C)c3)cc12` (stereo not drawn): the negative-log IC50 (pIC50) in test [1] was > 7.30. Moreover, the GI50 in test [2] and in test [3] was < 1000 nM each time.
